From US12594276B2, “Inhibitors of human immunodeficiency virus replication” (ViiV Healthcare UK (No.5) Limited, priority 2024, dated 2026)

What was measured:
[1] = tested on: recombinant NL4-3 virus (nef section replaced with Renilla luciferase gene) in MT-2 cells; experiment: HIV cell culture assay (antiviral activity, luciferase readout); assay type: cell-based; settings: Renilla, NL43, MT-2 cells infected for 4-5 days with recombinant NL4-3 Renilla luciferase virus
In short: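 293T transfection → virus harvest at 2-3 d → titer in MT-2 by luciferase. MT-2 + virus + serial cpd dilutions, 4-5 d. Live-cell luciferase read; EC50 by median effect fit.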

[2] = Compound cytotoxicity, XTT-based colorimetric assay; assay type: cell-based; settings: human; uninfected MT2 cells, day 4, XTT; read-out: CC50
In short: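 Cells seeded as for the antiviral assay but left uninfected (MT2). Compound exposure continued to day 4. XTT reagent added and colour read. CC50 calculated.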

Row | SMILES | EC50 [1] [nM] | CC50 at 4 days [2] [nM]
1 | COCCCn1nc(NS(C)(=O)=O)c2c(Cl)ccc(-n3c([C@H](Cc4cc(F)cc(F)c4)NC(=O)Cn4nc(C(F)F)c5c4C(F)(F)[C@@H]4C[C@H]54)nc4nc(C5CCC(F)(F)CC5)cc(C)c4c3=O)c21 (atropisomer, axis not shown; (P)) [Example 90, N-[(1S)-1-[(3P)-3-[4-chloro-3-methanesulfonamido-1-(3-methoxypropyl)-1H-indazol-7-yl]-7-(4,4-difluorocyclohexyl)-5-methyl-4-oxo-3H,4H-pyrido[2,3-d]pyrimidin-2-yl]-2-(3,5-difluorophenyl)ethyl]-2-[(2S,4R)-9-(difluoromethyl)-5,5-difluoro-7,8-diazatricyclo[4.3.0.0^2,^4]nona-1(6),8-dien-7-yl]acetamide] | 0.018 | > 50
2 | Cc1cc(C2CCC(F)(F)CC2)nc2nc([C@H](Cc3cc(F)cc(F)c3)NC(=O)Cn3nc(C(F)F)c4c3C(F)(F)[C@@H]3C[C@H]43)n(-c3ccc(Cl)c4c(NS(C)(=O)=O)nn(CCN5CC(F)(F)C(F)(F)C5)c34)c(=O)c12 (atropisomer, axis not shown; (P)) [Example 247, N-[(1S)-1-[(3P)-3-{4-chloro-3-methanesulfonamido-1-[2-(3,3,4,4-tetrafluoropyrrolidin-1-yl)ethyl]-1H-indazol-7-yl}-7-(4,4-difluorocyclohexyl)-5-methyl-4-oxo-3H,4H-pyrido[2,3-d]pyrimidin-2-yl]-2-(3,5-difluorophenyl)ethyl]-2-[(2S,4R)-9-(difluoromethyl)-5,5-difluoro-7,8-diazatricyclo[4.3.0.0^2,^4]nona-1(6),8-dien-7-yl]acetamide] | 0.047 | > 50
3 | CS(=O)(=O)Nc1nn(CCN2CC(C(F)F)C2)c2c(-n3c([C@H](Cc4cc(F)cc(F)c4)NC(=O)Cn4nc(C(F)F)c5c4C(F)(F)[C@@H]4C[C@H]54)nc4nc(C5CCC(F)(F)CC5)cc(C(F)F)c4c3=O)ccc(Cl)c12 (atropisomer, axis not shown; (P)) [Example 315, N-[(1S)-1-[(3P)-3-(4-chloro-1-{2-[3-(difluoromethyl)azetidin-1-yl]ethyl}-3-methanesulfonamido-1H-indazol-7-yl)-7-(4,4-difluorocyclohexyl)-5-(difluoromethyl)-4-oxo-3H,4H-pyrido[2,3-d]pyrimidin-2-yl]-2-(3,5-difluorophenyl)ethyl]-2-[(2S,4R)-9-(difluoromethyl)-5,5-difluoro-7,8-diazatricyclo[4.3.0.0^2,^4]nona-1(6),8-dien-7-yl]acetamide] | 0.025 | > 50
4 | CCOCCn1nc(NS(C)(=O)=O)c2c(Cl)ccc(-n3c([C@H](Cc4cc(F)cc(F)c4)NC(=O)Cn4nc(C(F)F)c5c4C(F)(F)[C@@H]4C[C@H]54)nc4nc(C5CCC(F)(F)CC5)cc(C)c4c3=O)c21 (atropisomer, axis not shown; (P)) [Example 60, N-[(1S)-1-[(3P)-3-[4-chloro-1-(2-ethoxyethyl)-3-methanesulfonamido-1H-indazol-7-yl]-7-(4,4-difluorocyclohexyl)-5-methyl-4-oxo-3H,4H-pyrido[2,3-d]pyrimidin-2-yl]-2-(3,5-difluorophenyl)ethyl]-2-[(2S,4R)-9-(difluoromethyl)-5,5-difluoro-7,8-diazatricyclo[4.3.0.0^2,^4]nona-1(6),8-dien-7-yl]acetamide] | 0.012 | > 50
5 | Cc1cc(C2CCC(F)(F)CC2)nc2nc([C@H](Cc3cc(F)cc(F)c3)NC(=O)Cn3nc(C(F)F)c4c3C(F)(F)[C@@H]3C[C@H]43)n(-c3ccc(Cl)c4c(NS(C)(=O)=O)nn(CCOCC(F)(F)F)c34)c(=O)c12 (atropisomer, axis not shown; (P)) [Example 72, N-[(1S)-1-[(3P)-3-{4-chloro-3-methanesulfonamido-1-[2-(2,2,2-trifluoroethoxy)ethyl]-1H-indazol-7-yl}-7-(4,4-difluorocyclohexyl)-5-methyl-4-oxo-3H,4H-pyrido[2,3-d]pyrimidin-2-yl]-2-(3,5-difluorophenyl)ethyl]-2-[(2S,4R)-9-(difluoromethyl)-5,5-difluoro-7,8-diazatricyclo[4.3.0.0^2,^4]nona-1(6),8-dien-7-yl]acetamide] | 0.029 | > 50
6 | Cc1cc(C2CCC(F)(F)CC2)nc2nc([C@H](Cc3cc(F)cc(F)c3)NC(=O)Cn3nc(C(F)F)c4c3C(F)(F)[C@@H]3C[C@H]43)n(-c3ccc(Cl)c4c(NS(C)(=O)=O)nn(CCN5C[C@@H](C)OC(C)(C)C5)c34)c(=O)c12 (atropisomer, axis not shown; (P)) [Example 454, N-[(1S)-1-[(3P)-3-(4-chloro-3-methanesulfonamido-1-{2-[(6R)-2,2,6-trimethylmorpholin-4-yl]ethyl}-1H-indazol-7-yl)-7-(4,4-difluorocyclohexyl)-5-methyl-4-oxo-3H, 4H-pyrido[2,3-d]pyrimidin-2-yl]-2-(3,5-difluorophenyl)ethyl]-2-[(2S,4R)-9-(difluoromethyl)-5,5-difluoro-7,8-diazatricyclo[4.3.0.0^2,^4]nona-1(6),8-dien-7-yl]acetamide] | 0.01 | > 20
7 | Cc1cc(C2CCC(F)(F)CC2)nc2nc([C@H](Cc3cc(F)cc(F)c3)NC(=O)Cn3nc(C(F)F)c4c3C(F)(F)[C@@H]3C[C@H]43)n(-c3ccc(Cl)c4c(NS(C)(=O)=O)nn(CCN5C[C@@H]6C[C@H]5CC6(F)F)c34)c(=O)c12 (atropisomer, axis not shown; (P)) [Example 310, N-[(1S)-1-[(3P)-3-(4-chloro-1-{2-[(1S,4S)-5,5-difluoro-2-azabicyclo[2.2.1]heptan-2-yl]ethyl}-3-methanesulfonamido-1H-indazol-7-yl)-7-(4,4-difluorocyclohexyl)-5-methyl-4-oxo-3H,4H-pyrido[2,3-d]pyrimidin-2-yl]-2-(3,5-difluorophenyl)ethyl]-2-[(2S,4R)-9-(difluoromethyl)-5,5-difluoro-7,8-diazatricyclo[4.3.0.0^2,^4]nona-1(6),8-dien-7-yl]acetamide] | 0.019 | > 50
8 | COCCCn1nc(NS(C)(=O)=O)c2c(Cl)ccc(-n3c([C@H](Cc4cc(F)cc(F)c4)NC(=O)Cn4nc(C(F)F)c5c4C(F)(F)[C@@H]4C[C@H]54)nc4nc(C5CCC(F)(F)CC5)cc(NCCC#N)c4c3=O)c21 (atropisomer, axis not shown; (P)) [Example 433, N-[(1S)-1-[(3P)-3-[4-chloro-3-methanesulfonamido-1-(3-methoxypropyl)-1H-indazol-7-yl]-5-[(2-cyanoethyl)amino]-7-(4,4-difluorocyclohexyl)-4-oxo-3H,4H-pyrido[2,3-d]pyrimidin-2-yl]-2-(3,5-difluorophenyl)ethyl]-2-[(2S,4R)-9-(difluoromethyl)-5,5-difluoro-7,8-diazatricyclo[4.3.0.0^2,^4]nona-1(6),8-dien-7-yl]acetamide] | 0.037 | > 20
9 | CS(=O)(=O)Nc1nn(CCN2CC(C(F)F)C2)c2c(-n3c([C@H](Cc4cc(F)cc(F)c4)NC(=O)Cn4nc(C(F)F)c5c4C(F)(F)[C@@H]4C[C@H]54)nc4nc(C5CCC(F)(F)CC5)ccc4c3=O)ccc(Cl)c12 (atropisomer, axis not shown; (P)) [Example 160, N-[(1S)-1-[(3P)-3-(4-chloro-1-{2-[3-(difluoromethyl)azetidin-1-yl]ethyl}-3-methanesulfonamido-1H-indazol-7-yl)-7-(4,4-difluorocyclohexyl)-4-oxo-3H,4H-pyrido[2,3-d]pyrimidin-2-yl]-2-(3,5-difluorophenyl)ethyl]-2-[(2S,4R)-9-(difluoromethyl)-5,5-difluoro-7,8-diazatricyclo[4.3.0.0^2,^4]nona-1(6),8-dien-7-yl]acetamide] | 0.023 | > 50
10 | CS(=O)(=O)Nc1nn(CCN2CCC(F)(F)CC2)c2c(-n3c([C@H](Cc4cc(F)cc(F)c4)NC(=O)Cn4nc(C(F)F)c5c4C(F)(F)[C@@H]4C[C@H]54)nc4nc(C5CCC(F)(F)CC5)cc(CO)c4c3=O)ccc(Cl)c12 (atropisomer, axis not shown; (P)) [Example 675, N-[(1S)-1-[(3P)-3-{4-chloro-1-[2-(4,4-difluoropiperidin-1-yl)ethyl]-3-methanesulfonamido-1H-indazol-7-yl}-7-(4,4-difluorocyclohexyl)-5-(hydroxymethyl)-4-oxo-3H,4H-pyrido[2,3-d]pyrimidin-2-yl]-2-(3,5-difluorophenyl)ethyl]-2-[(2S,4R)-9-(difluoromethyl)-5,5-difluoro-7,8-diazatricyclo[4.3.0.0^2,4]nona-1(6),8-dien-7-yl]acetamide] | 0.031 | > 20
11 | COCCCn1nc(NS(C)(=O)=O)c2c(Cl)ccc(-n3c([C@H](Cc4cc(F)cc(F)c4)NC(=O)Cn4nc(C5CC5)c5c4C[C@@H]4C[C@H]54)nc4nc(C5CCC(F)(F)CC5)cc(CN5C[C@@H](C)O[C@@H](C)C5)c4c3=O)c21 (atropisomer, axis not shown; (P)) [Example 599, N-[(1S)-1-[(3P)-3-[4-chloro-3-methanesulfonamido-1-(3-methoxypropyl)-1H-indazol-7-yl]-7-(4,4-difluorocyclohexyl)-5-{[(2R,6S)-2,6-dimethylmorpholin-4-yl]methyl}-4-oxo-3H,4H-pyrido[2,3-d]pyrimidin-2-yl]-2-(3,5-difluorophenyl)ethyl]-2-[(2S,4S)-9-cyclopropyl-7,8-diazatricyclo[4.3.0.0^2,^4]nona-1(6),8-dien-7-yl]acetamide] | 0.007 | > 20
